Measured values reported in paper PMC9412374, “Design, Synthesis, and Development of pyrazolo[1,5-a]pyrimidine Derivatives as a Novel Series of Selective PI3Kδ Inhibitors: Part I—Indole Derivatives” (Pharmaceuticals, 2022).
Where “and” joins values, the source holds several entries; their conditions need not be identical. Identical values can stand only once. Like-named read-outs stand apart in the source and are kept apart here.

Tests used:
PI3Kδ = target: T1, PI3Kδ (Homo sapiens, UniProt O00329); assay: In vitro kinase inhibition assay for PI3K (ADP-Glo), PI3Kδ; format: biochemical; details: recombinant kinase, mean of two independent experiments
T1 construct: purchased Merck Millipore
Experimental: Tested compounds were dissolved in 100% DMSO, and obtained solutions were serially diluted in 1× reaction buffer. The recombinant kinase solution was diluted in a reaction mixture comprising 5× reaction buffer, respective compound solution (1 mM sodium diacetate 4,5-bisphosphate phosphatidylinositol (PIP2) solution in 40 mM Tris buffer), and water. In a 96-wells plate, 5 μL of compound solutions and 15 μL of the kinase solution in the reaction mixture were added per well. To initiate the interaction of chemical compounds to be tested with the enzyme, the plate was incubated for 10 min at a suitable temperature in a plate thermostat with orbital shaking at 600 rpm. Negative control wells contained all the above reagents except tested compound and kinase, and positive control wells contained all the above reagents except tested compounds. […] Subsequently, the plate was incubated for 1 h at 25 or 30 °C (depending on the PI3K isoform tested) in a plate thermostat with orbital shaking of the plate contents at 600 rpm. The reaction conditions are combined in the table below (Table 6).
Detection of ADP formed in the enzymatic reaction was then performed using ADP-Glo Kinase Assay™ (Promega, Madison, WI, USA). To the wells of a 96-well plate, 25 μL of ADP-Glo Reagent™ was added, and the plate was incubated for 40 min at 25 °C in a plate thermostat with orbital shaking at 600 rpm. Then 50 μL of Kinase Detection Reagent were added to each well, and the plate was incubated for 40 min at 25 °C in a plate thermostat with orbital shaking at 600 rpm. Once the incubation was complete, the luminescence intensity was measured using a Victor Light luminometer (Perkin Elmer, Inc., Waltham, MA, USA). IC50 values were determined based on luminescence intensity measured in wells containing tested compounds at different concentrations in relation to control wells. […] Each compound was tested at least in quadruplicates (4 wells) on two 96-well plates utilizing at least 4 wells for each control.

PI3Kα = target: T2, PI3Kα (Homo sapiens, UniProt P42336); assay: In vitro kinase inhibition assay for PI3K (ADP-Glo), PI3Kα; format: biochemical; details: for IC50: recombinant kinase, ADP-Glo, mean of two independent experiments; for Fold Selectivity α/δ: ratio of IC50 PI3Kα to IC50 PI3Kδ
T2 construct: purchased Carna Biosciences
Experimental: Tested compounds were dissolved in 100% DMSO, and obtained solutions were serially diluted in 1× reaction buffer. The recombinant kinase solution was diluted in a reaction mixture comprising 5× reaction buffer, respective compound solution (1 mM sodium diacetate 4,5-bisphosphate phosphatidylinositol (PIP2) solution in 40 mM Tris buffer), and water. In a 96-wells plate, 5 μL of compound solutions and 15 μL of the kinase solution in the reaction mixture were added per well. To initiate the interaction of chemical compounds to be tested with the enzyme, the plate was incubated for 10 min at a suitable temperature in a plate thermostat with orbital shaking at 600 rpm. Negative control wells contained all the above reagents except tested compound and kinase, and positive control wells contained all the above reagents except tested compounds. The enzymatic reaction was initiated by adding 5 μL of 150 μM ATP solution. Subsequently, the plate was incubated for 1 h at 25 or 30 °C (depending on the PI3K isoform tested) in a plate thermostat with orbital shaking of the plate contents at 600 rpm. The reaction conditions are combined in the table below (Table 6).
Detection of ADP formed in the enzymatic reaction was then performed using ADP-Glo Kinase Assay™ (Promega, Madison, WI, USA). To the wells of a 96-well plate, 25 μL of ADP-Glo Reagent™ was added, and the plate was incubated for 40 min at 25 °C in a plate thermostat with orbital shaking at 600 rpm. Then 50 μL of Kinase Detection Reagent were added to each well, and the plate was incubated for 40 min at 25 °C in a plate thermostat with orbital shaking at 600 rpm. Once the incubation was complete, the luminescence intensity was measured using a Victor Light luminometer (Perkin Elmer, Inc., Waltham, MA, USA). IC50 values were determined based on luminescence intensity measured in wells containing tested compounds at different concentrations in relation to control wells. These values were calculated with Graph Pad 5.03 software by fitting the curve using non-linear regression. Each compound was tested at least in quadruplicates (4 wells) on two 96-well plates utilizing at least 4 wells for each control. Averaged results of inhibition activity respective to specific isoforms of PI3K kinases for tested compounds are presented as IC50 values in Table 1, Table 2, Table 3 and Table 4.

T1 sequence (P27986 whole entry): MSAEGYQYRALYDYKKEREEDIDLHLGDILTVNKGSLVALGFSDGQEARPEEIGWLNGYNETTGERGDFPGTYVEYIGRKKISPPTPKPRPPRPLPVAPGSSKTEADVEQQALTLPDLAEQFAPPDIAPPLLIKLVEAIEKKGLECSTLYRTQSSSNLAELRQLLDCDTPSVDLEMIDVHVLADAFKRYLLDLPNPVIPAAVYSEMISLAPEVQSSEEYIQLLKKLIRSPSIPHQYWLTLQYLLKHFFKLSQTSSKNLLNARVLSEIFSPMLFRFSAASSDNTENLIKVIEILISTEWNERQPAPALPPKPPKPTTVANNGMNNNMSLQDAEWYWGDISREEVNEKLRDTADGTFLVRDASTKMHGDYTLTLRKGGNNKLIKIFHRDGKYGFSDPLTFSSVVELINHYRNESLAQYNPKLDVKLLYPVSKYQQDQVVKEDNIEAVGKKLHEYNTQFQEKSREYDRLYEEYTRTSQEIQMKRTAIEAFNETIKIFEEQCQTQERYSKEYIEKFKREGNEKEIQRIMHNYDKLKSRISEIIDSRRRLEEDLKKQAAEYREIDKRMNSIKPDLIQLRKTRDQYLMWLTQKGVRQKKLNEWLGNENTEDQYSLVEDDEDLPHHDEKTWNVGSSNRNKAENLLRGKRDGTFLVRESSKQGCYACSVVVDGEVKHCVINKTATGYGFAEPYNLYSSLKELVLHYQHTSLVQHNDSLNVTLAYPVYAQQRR
T1 sequence (O00329 whole entry): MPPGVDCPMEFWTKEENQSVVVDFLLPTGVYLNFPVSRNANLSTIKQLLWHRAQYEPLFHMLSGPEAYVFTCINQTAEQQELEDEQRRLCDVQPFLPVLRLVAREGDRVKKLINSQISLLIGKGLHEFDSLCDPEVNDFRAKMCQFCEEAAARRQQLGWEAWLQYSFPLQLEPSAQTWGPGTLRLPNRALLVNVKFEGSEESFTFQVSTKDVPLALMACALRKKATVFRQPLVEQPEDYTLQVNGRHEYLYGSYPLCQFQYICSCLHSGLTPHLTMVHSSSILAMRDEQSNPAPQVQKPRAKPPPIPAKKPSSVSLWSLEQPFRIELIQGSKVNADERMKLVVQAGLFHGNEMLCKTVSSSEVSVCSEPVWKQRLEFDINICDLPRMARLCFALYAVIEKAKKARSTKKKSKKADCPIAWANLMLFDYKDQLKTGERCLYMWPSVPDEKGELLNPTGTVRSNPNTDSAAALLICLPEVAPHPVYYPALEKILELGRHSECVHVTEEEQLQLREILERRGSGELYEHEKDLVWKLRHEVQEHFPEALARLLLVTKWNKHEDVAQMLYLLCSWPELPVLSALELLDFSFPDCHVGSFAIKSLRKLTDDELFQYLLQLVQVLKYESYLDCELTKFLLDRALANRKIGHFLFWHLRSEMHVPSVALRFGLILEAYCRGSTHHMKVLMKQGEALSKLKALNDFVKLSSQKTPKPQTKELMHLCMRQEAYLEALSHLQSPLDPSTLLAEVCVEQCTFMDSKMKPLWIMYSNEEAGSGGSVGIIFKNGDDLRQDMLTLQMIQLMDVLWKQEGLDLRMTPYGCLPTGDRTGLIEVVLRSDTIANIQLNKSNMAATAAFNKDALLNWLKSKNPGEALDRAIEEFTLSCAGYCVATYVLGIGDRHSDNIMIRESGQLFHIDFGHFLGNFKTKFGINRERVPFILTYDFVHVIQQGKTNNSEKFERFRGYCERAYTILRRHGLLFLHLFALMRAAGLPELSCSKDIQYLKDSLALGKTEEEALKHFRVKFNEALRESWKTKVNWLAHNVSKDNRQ
T2 sequence (P42336 whole entry): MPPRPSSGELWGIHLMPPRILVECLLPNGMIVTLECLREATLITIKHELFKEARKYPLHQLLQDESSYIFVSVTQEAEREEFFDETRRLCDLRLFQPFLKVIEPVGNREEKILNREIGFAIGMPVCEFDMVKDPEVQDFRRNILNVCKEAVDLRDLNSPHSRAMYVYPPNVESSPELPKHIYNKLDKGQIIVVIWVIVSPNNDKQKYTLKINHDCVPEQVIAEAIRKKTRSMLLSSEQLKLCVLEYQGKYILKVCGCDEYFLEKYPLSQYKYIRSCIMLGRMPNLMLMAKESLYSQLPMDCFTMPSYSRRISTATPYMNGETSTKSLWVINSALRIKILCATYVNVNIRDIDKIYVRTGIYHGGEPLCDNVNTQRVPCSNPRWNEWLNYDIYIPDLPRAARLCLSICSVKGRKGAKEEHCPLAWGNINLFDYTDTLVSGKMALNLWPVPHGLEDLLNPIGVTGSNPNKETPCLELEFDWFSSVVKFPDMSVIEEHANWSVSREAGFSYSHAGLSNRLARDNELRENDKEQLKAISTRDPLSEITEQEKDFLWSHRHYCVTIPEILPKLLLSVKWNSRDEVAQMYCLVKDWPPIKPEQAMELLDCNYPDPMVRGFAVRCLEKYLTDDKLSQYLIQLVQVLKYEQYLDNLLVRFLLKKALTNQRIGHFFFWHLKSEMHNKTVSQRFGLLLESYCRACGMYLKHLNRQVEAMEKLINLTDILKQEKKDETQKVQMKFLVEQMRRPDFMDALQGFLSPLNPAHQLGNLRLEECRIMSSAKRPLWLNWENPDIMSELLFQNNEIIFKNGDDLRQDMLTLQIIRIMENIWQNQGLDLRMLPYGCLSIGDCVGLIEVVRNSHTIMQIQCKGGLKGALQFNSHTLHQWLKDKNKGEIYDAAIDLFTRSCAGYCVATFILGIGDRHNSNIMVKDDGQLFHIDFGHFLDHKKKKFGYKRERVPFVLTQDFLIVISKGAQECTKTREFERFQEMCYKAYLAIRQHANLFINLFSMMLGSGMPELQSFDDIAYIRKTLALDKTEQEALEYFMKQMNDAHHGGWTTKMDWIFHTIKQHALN
T2 sequence (P27986 whole entry partner): as the sequence (P27986 whole entry) above

Row | Structure (SMILES) | IC50 (PI3Kδ; read-out: IC50 PI3Kδ) | IC50 (PI3Kα; IC50 PI3Kα) [µM] | Fold Selectivity α/δ (PI3Kα) | IC50 (PI3Kδ; read-out: IC50 PI3K δ) [nM] | IC50 (PI3Kα; IC50 PI3K α) [µM]
1 | Cc1cc2nc(-n3c(C)nc4ccccc43)cc(N3CCOCC3)n2n1 [Compound 5, 2-methyl-5-(2-methylbenzimidazol-1-yl)-7-(morpholin-4-yl)pyrazolo[1,5-a]pyrimidine] | 3560 nM | 35.1 | 9.9 |  | 
2 | CCc1nc2ccccc2n1-c1cc(N2CCOCC2)n2nc(C)cc2n1 [Compound 6, 2-methyl-5-(2-ethylbenzimidazol-1-yl)-7-(morpholin-4-yl)pyrazolo[1,5-a]pyrimidine] | 2300 nM | 25.9 | 11 |  | 
3 | Cc1cc2nc(-n3c(C(F)F)nc4ccccc43)cc(N3CCOCC3)n2n1 [Compound 7, 2-methyl-5-(2-difluoromethylbenzimidazol-1-yl)-7-(morpholin-4-yl)pyrazolo[1,5-a]pyrimidine] | 470 nM and 475 nM | 1.06 | 2.2 |  | 
4 | Cc1cc(Nc2cc(N3CCOCC3)n3nc(C)cc3n2)[nH]n1 [Compound 9, 3-methyl-N-[2-methyl-7-(morpholin-4-yl)pyrazolo[1,5-a]pyrimidin-5-yl]-1H-pyrazol-5-amine] | 43600 nM | > 60 | >1.4 |  | 
5 | Cc1cc2nc(-c3cn[nH]c3)cc(N3CCOCC3)n2n1 [Compound 10, 2-methyl-7-(morpholin-4-yl)-5-(1H-pyrazol-4-yl)pyrazolo[1,5-a]pyrimidine] | 12700 nM | 36.2 | 2.9 |  | 
6 | Cc1cc2nc(-c3ccc(N)nc3)cc(N3CCOCC3)n2n1 [Compound 11, 2-methyl-7-(morpholin-4-yl)-5-(2-aminopyridin-5-yl)pyrazolo[1,5-a]pyrimidine] | 6860 nM | 4.64 | 0.7 |  | 
7 | Cc1cc2nc(-c3cccc4[nH]ncc34)cc(N3CCOCC3)n2n1 [Compound 12, 2-methyl-7-(morpholin-4-yl)-5-(1H-indazole-4-yl)pyrazolo[1,5-a]pyrimidine] | 3850 nM | 4.81 | 1.2 |  | 
8 | Cc1cc2nc(-c3cccc4[nH]ccc34)cc(N3CCOCC3)n2n1 [Compound 13, 2-methyl-7-(morpholin-4-yl)-5-(1H-indole-4-yl)pyrazolo[1,5-a]pyrimidine] | 772 nM | 23.5 | 30 |  | 
9 | CS(=O)(=O)N1CCN(Cc2cc3nc(-c4cccc5[nH]ccc45)cc(N4CCOCC4)n3n2)CC1 [Compound 23, 5-(1H-indol-4-yl)-2-((4-(methyl-sulphonyl)piperazin-1-yl)methyl)-7-(morpholin-4-yl)pyrazolo[1,5-a]pyrimidine] | 400 nM | 2.35 | 5.8 | 402 | 2.35
10 | O[C@@H]1CCN(Cc2cc3nc(-c4cccc5[nH]ccc45)cc(N4CCOCC4)n3n2)C1 [Compound 25] |  |  |  | 1990 | 
11 | O[C@H]1CCN(Cc2cc3nc(-c4cccc5[nH]ccc45)cc(N4CCOCC4)n3n2)C1 [Compound 26] |  |  |  | 2210 | 
12 | O=S1(=O)CCN(Cc2cc3nc(-c4cccc5[nH]ccc45)cc(N4CCOCC4)n3n2)CC1 [Compound 27, 2-((1,1-dioxothiomorpholin-1-yl)-methyl)-5-(1H-indol-4-yl)-7-(morpholin-4-yl)pyrazolo[1,5-a]pyrimidine] |  |  | 33 | 266 | 8.65
13 | c1cc(-c2cc(N3CCOCC3)n3nc(CN4CCOCC4)cc3n2)c2cc[nH]c2c1 [Compound 28, 5-(1H-indol-4-yl)-7-(morpholin-4-yl)-2-((morpholin-4-yl)methyl)pyrazolo[1,5-a]pyrimidine] |  |  |  | 1070 | 
14 | CN1CCN(C2CCN(Cc3cc4nc(-c5cccc6[nH]ccc56)cc(N5CCOCC5)n4n3)CC2)CC1 [Compound 29, 5-(1H-indol-4-yl)-2-((4-(4-methylpiperazin-1-yl)piperidin-1-yl)methyl)-7-(morpholin-4-yl)pyrazolo[1,5-a]pyrimidine] |  |  | 301 | 52 | 15.6
15 | CCNC(=O)NC1CCN(Cc2cc3nc(-c4cccc5[nH]ccc45)cc(N4CCOCC4)n3n2)CC1 [Compound 30, 3-ethyl-1-(1-((5-(1H-indol-4-yl)-7-(morpholin-4-yl)pyrazolo[1,5-a]pyrimidin-2-yl)methyl)piperidin-4-yl)urea] |  |  | 39 | 360 | 14.2
16 | O=C(Nc1ccccc1)NC1CCN(Cc2cc3nc(-c4cccc5[nH]ccc45)cc(N4CCOCC4)n3n2)CC1 [Compound 31, 1-phenyl-3-(1-((5-(1H-indol-4-yl)-7-(morpholin-4-yl)pyrazolo[1,5-a]pyrimidin-2-yl)methyl)piperidin-4-yl)urea] |  |  |  | 559 | 
17 | COc1ccc(N2CCN(Cc3cc4nc(-c5cccc6[nH]ccc56)cc(N5CCOCC5)n4n3)CC2)cc1 [Compound 32, 5-(1H-indol-4-yl)-2-((4-(4-methoxyphenyl)piperazin-1-yl)-methyl)-7-(morpholin-4-yl)pyrazolo[1,5-a]pyrimidine] |  |  | 50 | 177 | 8.79
18 | CN1CCN(Cc2cc3nc(-c4cccc5[nH]ccc45)cc(N4CCOCC4)n3n2)CC1 [Compound 33, 5-(1H-indol-4-yl)-2-((4-methyl-piperazin-1-yl)methyl)-7-(morpholin-4-yl)pyrazolo[1,5-a]pyrimidine] |  |  | 220 | 193 | 42.4
19 | COC(=O)C1CCN(Cc2cc3nc(-c4cccc5[nH]ccc45)cc(N4CCOCC4)n3n2)CC1 [Compound 35, Methyl 1-((5-(1H-indol-4-yl)-7-(morpholin-4-yl)pyrazolo[1,5-a]pyrimidin-2-yl)methyl)piperidin-4-carboxylate] |  |  | 61 | 138 | 8.46
20 | c1cc(-c2cc(N3CCOCC3)n3nc(CN4CCN(C5CCCC5)CC4)cc3n2)c2cc[nH]c2c1 [Compound 40, 2-((4-cyclopentylpiperazin-1-yl)methyl)-5-(1H-indol-4-yl)-7-(morpholin-4-yl)pyrazolo[1,5-a]pyrimidine] |  |  | 329 | 42 | 13.8
21 | c1cc(-c2cc(N3CCOCC3)n3nc(CN4CCN(C5COC5)CC4)cc3n2)c2cc[nH]c2c1 [Compound 42] |  |  | 334 | 56 | 18.7
22 | c1cc(-c2cc(N3CCOCC3)n3nc(CN4CC5CC4CN5C4COC4)cc3n2)c2cc[nH]c2c1 [Compound 43, 5-(1H-indol-4-yl)-2-(((1S, 4S)-2-(oxetan-3-yl)-2,5-diaza-bicyclo [2.2.1]hept-2-yl)methyl)-7-(morpholin-4-yl)pyrazolo[1,5-a]pyrimidine] |  |  | 318 | 71 | 22.6
23 | c1cc(-c2cc(N3CCOCC3)n3nc(CN4CCN(CC5CC5)CC4)cc3n2)c2cc[nH]c2c1 [Compound 45, 2-((4-(cyclopropylmethyl)piperazin-1-yl)methyl)-5-(1H-indol-4-yl)-7-(morpholin-4-yl)pyrazolo[1,5-a]pyrimidine] |  |  | 218 | 29 | 6.32
